According to PMC6081459, “Pathogen-derived HLA-E bound epitopes reveal broad primary anchor pocket tolerability and conformationally malleable peptide binding” (Nature Communications, 2018):

What was measured:
[1] = test system: Mamu-E restricted CD8^+ T cells; assay type: cell-based, rhesus macaques (Macaca mulatta)
[2] = biological target: HLA-E*01:03 (Homo sapiens, UniProt P13747); test: Single-chain peptide-β2m-HC construct, HLA-E surface expression in transfected 293T cells; assay type: cell-based; details: peptide encoded in single-chain peptide-β2M-HC construct, 24 h after transfection, flow cytometry, scaled to index position 2 residue, n = 4

Row | Sequence | Magnitude of CD8+ T cell responses to Mtb44 and position 2 variants [1] | Relative HLA-E surface expression (MFI, 3D12 antibody) [2]
1 | RFPAKAPLL [Mtb44*P2-Phe] | responses of similar magnitude | highest relative levels of HLA-E surface expression
2 | RQPAKAPLL [Mtb44*P2-Gln] | responses of similar magnitude | –
3 | RLPAKAPLL [Mtb44] | responses of similar magnitude | –
